Test results from DBAASP.
≈ marks a conversion by molar mass, not a printed value.

Experiments:
Test in all cases: ≥ marks a high value that may be exact or a test limit, other limits are often not marked, values filed in µg/mL are converted to µM
[1] = tested on: Staphylococcus aureus ATCC 15752
[2] = tested on: Salmonella enterica subsp. enterica serovar Enteritidis ATCC 13076
[3] = tested on: Escherichia coli ATCC 27325
[4] = tested on: Cryptococcus neoformans ATCC 34881
[5] = tested on: Bacillus subtilis ATCC 62037
[6] = tested on: Candida albicans ATCC 10231
[7] = tested on: Streptococcus mutans ATCC 25175
[8] = tested on: Saccharomyces cerevisiae ATCC 44774
[9] = tested on: Pseudomonas putida ATCC 17426
[10] = tested on: Enterococcus faecalis f43559
[11] = tested on: Enterobacter cloacae 218R
[12] = tested on: Enterococcus faecalis W61950
[13] = tested on: Stenotrophomonas maltophilia ATCC 13637
[14] = tested on: Enterococcus faecium mic80
[15] = tested on: Enterococcus faecium t62764
[16] = tested on: Pseudomonas aeruginosa 213
[17] = tested on: Klebsiella pneumoniae ESBL 61962
[18] = tested on: Pseudomonas aeruginosa H1027
[19] = tested on: Escherichia coli ESBL 63103
[20] = tested on: Staphylococcus aureus ATCC 25923
[21] = tested on: Pseudomonas aeruginosa PAO1 H103
Pseudomonas aeruginosa 9 = tested on: Pseudomonas aeruginosa 9
[22] = tested on: Pseudomonas aeruginosa H1030
[23] = tested on: Escherichia coli ESBL 64771
[24] = tested on: Staphylococcus aureus C623
[25] = tested on: Pseudomonas aeruginosa LES400
[26] = tested on: Klebsiella pneumoniae ESBL 63575
[27] = tested on: Pseudomonas aeruginosa 198
[28] = tested on: Enterococcus faecalis ATCC 29212
[29] = tested on: Salmonella enterica subsp. enterica serovar Typhimurium ATCC 14028
[30] = tested on: Staphylococcus aureus TK784
[31] = tested on: Klebsiella pneumoniae ATCC 10031
[32] = tested on: Escherichia coli ATCC 25922
[33] = tested on: Staphylococcus aureus ATCC 6538P
[34] = tested on: Staphylococcus epidermidis ATCC 12228
[35] = tested on: Bacillus subtilis ATCC 6633
[36] = tested on: Pseudomonas aeruginosa ATCC 27853
[37] = tested on: Shigella dysenteriae ATCC 9752
[38] = tested on: Micrococcus luteus ATCC 10240
Klebsiella pneumoniae = tested on: Klebsiella pneumoniae
[39] = tested on: Klebsiella pneumoniae ATCC 700603
[40] = tested on: Klebsiella pneumoniae ATCC BAA-2146
Pseudomonas aeruginosa = tested on: Pseudomonas aeruginosa
[41] = tested on: Candida albicans ATCC 90028
[42] = tested on: Acinetobacter baumannii ATCC 19606
[43] = tested on: Cryptococcus neoformans ATCC 208821
[44] = tested on: Staphylococcus aureus ATCC 43300
[45] = tested on: Bacillus subtilis ATCC 6051
[46] = tested on: Klebsiella pneumoniae ATCC 13883
Acinetobacter baumannii = tested on: Acinetobacter baumannii

Compound | MIC [10] [µM] | MIC [11] [µM] | MIC [12] [µM] | MIC [13] [µM] | MIC [14] [µM] | MIC [15] [µM] | MIC [16] [µM] | MIC [17] [µM] | MIC [18] [µM] | MIC [19] [µM] | MIC [20] [µM] | MIC [21] [µM] | MIC (Pseudomonas aeruginosa 9) [µM] | MIC [22] [µM] | MIC [23] [µM] | MIC [24] [µM] | MIC [25] [µM] | MIC [26] [µM] | MIC [32] [µM] | MIC [36] [µM] | other results
CC[C@H](C)[C@H](NC(=O)CNC(=O)[C@H](CCCCN)NC(=O)[C@H](CCCCN)NC(=O)[C@H](CCC(N)=O)NC(=O)[C@H](CC(C)C)NC(=O)[C@H](CCSC)NC(=O)[C@@H](NC(=O)[C@H](CCC(=O)O)NC(=O)CNC(=O)[C@@H](NC(=O)[C@H](Cc1ccccc1)NC(=O)[C@H](C)NC(=O)[C@H](CCCCN)NC(=O)CNC(=O)[C@H](Cc1ccccc1)NC(=O)[C@H](CCCCN)NC(=O)[C@H](CCCCN)NC(=O)[C@H](C)NC(=O)[C@H](CO)NC(=O)[C@H](Cc1cnc[nH]1)NC(=O)[C@H](CCSC)NC(=O)[C@H](C)NC(=O)[C@H](CCCCN)NC(=O)[C@@H]1CCCN1C(=O)[C@H](C)N)C(C)C)[C@@H](C)CC)C(=O)O [APKAMHSAKKFGKAFVGEIMLQKKGI] |  |  |  |  |  |  |  |  |  |  |  |  |  |  |  |  |  |  |  |  | MIC [1]: 22.7 µM (≈ 64 µg/mL); MIC [2]: 11.4 µM (≈ 32 µg/mL); MIC [3]: 22.7 µM (≈ 64 µg/mL); MIC [4]: 5.68 µM (≈ 16 µg/mL); MIC [5]: 22.7 µM (≈ 64 µg/mL); MIC [6]: 11.4 µM (≈ 32 µg/mL); MIC [7]: ≥ 45.4 µM; MIC [8]: 11.4 µM (≈ 32 µg/mL); MIC [9]: 22.7 µM (≈ 64 µg/mL)
N=C(N)NCCC[C@H](NC(=O)[C@H](CCCNC(=N)N)NC(=O)[C@@H](N)Cc1ccccc1)C(=O)N[C@@H](Cc1c[nH]c2ccccc12)C(=O)N[C@@H](Cc1c[nH]c2ccccc12)C(=O)N[C@@H](CCCCN)C(=O)N[C@@H](Cc1c[nH]c2ccccc12)C(=O)N[C@@H](Cc1ccccc1)C(=O)N[C@@H](CCCCN)C(=O)O [FRRWWKWFK] | ≥ 46.5 | 11.8 (≈ 17 µg/mL) | ≥ 93.8 | 0.417 (≈ 0.6 µg/mL) | 2.92 (≈ 4.2 µg/mL) | 2.92 (≈ 4.2 µg/mL) | 2.85 (≈ 4.1 µg/mL) | ≥ 46.5 | 0.695 (≈ 1 µg/mL) | 5.77 (≈ 8.3 µg/mL) | 0.695 (≈ 1 µg/mL) | 0.695 (≈ 1 µg/mL) | 5.77 (≈ 8.3 µg/mL) | 11.8 (≈ 17 µg/mL) | 2.92 (≈ 4.2 µg/mL) | 1.46 (≈ 2.1 µg/mL) | 2.85 (≈ 4.1 µg/mL) | 11.8 (≈ 17 µg/mL) |  |  | MIC [27]: 1.46 µM (≈ 2.1 µg/mL); MIC [28]: 11.8 µM (≈ 17 µg/mL)
CC(C)C[C@H](NC(=O)[C@H](CC(C)C)NC(=O)[C@H](CCCCN)NC(=O)[C@H](CCCCN)NC(=O)[C@H](CC(C)C)NC(=O)[C@H](Cc1c[nH]c2ccccc12)NC(=O)[C@H](CCCCN)NC(=O)[C@H](CC(C)C)NC(=O)[C@H](CC(C)C)NC(=O)[C@H](CCCCN)NC(=O)[C@@H](N)CCCCN)C(N)=O [KKLLKWLKKLL] |  |  |  |  |  |  |  |  |  |  |  |  |  |  |  |  |  |  | 8.86 (≈ 12.5 µg/mL) | 17.7 (≈ 25 µg/mL) | MIC [29]: 17.7 µM (≈ 25 µg/mL); MIC [30]: 2.84 µM (≈ 4 µg/mL); MIC [31]: 4.47 µM (≈ 6.3 µg/mL); MIC [33]: 4.47 µM (≈ 6.3 µg/mL); MIC [34]: 4.47 µM (≈ 6.3 µg/mL); MIC [35]: 4.47 µM (≈ 6.3 µg/mL); MIC [37]: 4.47 µM (≈ 6.3 µg/mL); MIC [38]: 4.47 µM (≈ 6.3 µg/mL)

Second part, led by results:

MIC [10] [µM] | MIC [11] [µM] | MIC [12] [µM] | MIC [13] [µM] | MIC [14] [µM] | MIC [15] [µM] | MIC [16] [µM] | MIC [17] [µM] | MIC [18] [µM] | MIC [19] [µM] | MIC [20] [µM] | MIC [21] [µM] | MIC (Pseudomonas aeruginosa 9) [µM] | MIC [22] [µM] | MIC [23] [µM] | MIC [24] [µM] | MIC [25] [µM] | MIC [26] [µM] | MIC [32] [µM] | MIC [36] [µM] | Compound | other results
 |  |  |  |  |  |  |  |  |  |  |  |  |  |  |  |  |  | 1.42 (≈ 2 µg/mL) | 2.84 (≈ 4 µg/mL) | CC(C)C[C@H](NC(=O)[C@H](Cc1c[nH]c2ccccc12)NC(=O)[C@H](CCCCN)NC(=O)[C@H](CC(C)C)NC(=O)[C@H](CC(C)C)NC(=O)[C@H](CCCCN)NC(=O)[C@H](CCCCN)NC(=O)[C@H](CC(C)C)NC(=O)[C@H](CC(C)C)NC(=O)[C@@H](N)CCCCN)C(=O)N[C@@H](CCCCN)C(N)=O [KLLKKLLKWLK] | MIC [29]: 1.42 µM (≈ 2 µg/mL); MIC [30]: 5.67 µM (≈ 7.99 µg/mL); MIC [31]: 1.42 µM (≈ 2 µg/mL); MIC [33]: 1.42 µM (≈ 2 µg/mL); MIC [34]: 1.42 µM (≈ 2 µg/mL); MIC [35]: 1.42 µM (≈ 2 µg/mL); MIC [37]: 1.42 µM (≈ 2 µg/mL); MIC [38]: 2.84 µM (≈ 4 µg/mL)
13.3 (≈ 18 µg/mL) | 27.3 (≈ 37 µg/mL) | 27.3 (≈ 37 µg/mL) | 1.77 (≈ 2.4 µg/mL) | 3.39 (≈ 4.6 µg/mL) | 0.811 (≈ 1.1 µg/mL) | 27.3 (≈ 37 µg/mL) | ≥ 109 | 3.39 (≈ 4.6 µg/mL) | 13.3 (≈ 18 µg/mL) | 3.39 (≈ 4.6 µg/mL) | 7.08 (≈ 9.6 µg/mL) | 27.3 (≈ 37 µg/mL) | 13.3 (≈ 18 µg/mL) | 7.08 (≈ 9.6 µg/mL) | 3.39 (≈ 4.6 µg/mL) | 13.3 (≈ 18 µg/mL) | 27.3 (≈ 37 µg/mL) |  |  | CC[C@H](C)[C@H](NC(=O)[C@H](CCCN=C(N)N)NC(=O)[C@H](CCCCN)NC(=O)[C@@H](NC(=O)[C@H](Cc1c[nH]c2ccccc12)NC(=O)[C@H](Cc1c[nH]c2ccccc12)NC(=O)[C@H](Cc1c[nH]c2ccccc12)NC(=O)[C@H](CCCN=C(N)N)NC(=O)[C@@H](N)CC(C)C)[C@@H](C)CC)C(=O)O [LRWWWIKRI] | MIC [27]: 13.3 µM (≈ 18 µg/mL); MIC [28]: 7.08 µM (≈ 9.6 µg/mL)
 |  |  |  |  |  |  |  |  |  |  |  |  |  |  |  |  |  | 0.0544 (≈ 0.125 µg/mL) | 0.109 (≈ 0.249 µg/mL) | CC[C@H](C)[C@@H]1NC(=O)CNC(=O)[C@H](CCCN=C(N)N)NC(=O)[C@H](Cc2ccc(O)cc2)NC(=O)[C@@H]2CSSC[C@H](NC1=O)C(=O)N[C@@H](Cc1ccc(O)cc1)C(=O)N[C@@H](CCCN=C(N)N)C(=O)N[C@@H](CCCN=C(N)N)C(=O)N[C@H](C(=O)N[C@@H](CCCN=C(N)N)C(=O)O)CSSC[C@H](NC(=O)[C@H](Cc1c[nH]c3ccccc13)NC(=O)[C@@H](N)CCCN=C(N)N)C(=O)N[C@@H](Cc1ccccc1)C(=O)N[C@@H](CCCN=C(N)N)C(=O)N[C@@H](C(C)C)C(=O)N2 [RWCFRVCYRGICYRRCR] | MIC (Klebsiella pneumoniae): 1.74 µM (≈ 3.99 µg/mL); MIC [39]: 0.218 µM (≈ 0.499 µg/mL); MIC [40]: 0.109 µM (≈ 0.249 µg/mL); MIC (Pseudomonas aeruginosa): 0.218 µM (≈ 0.499 µg/mL); MIC [41]: 1.74 µM (≈ 3.99 µg/mL); MIC [42]: 0.0544 µM (≈ 0.125 µg/mL); MIC [43]: 0.109 µM (≈ 0.249 µg/mL); MIC [44]: 0.435 µM (≈ 0.998 µg/mL); MIC [45]: 0.0544 µM (≈ 0.125 µg/mL); MIC [46]: 0.0544 µM (≈ 0.125 µg/mL); MIC (Acinetobacter baumannii): 0.109 µM (≈ 0.249 µg/mL)
